Experimental data from BindingDB's records for doi:10.1016/j.bmcl.2017.09.048 (St. John'S University, 2017).

assay: Inhibition of ABL in mouse BAF3 cells assessed as reduction in cell viability after 72 hrs by MTT assay

SMILES | IC50 [µM]
COc1cc(N2CCN(C)CC2)ccc1Nc1ncc(Cl)c(Oc2ccc(N)cc2)n1 | 2.81
COc1cc(N2CCN(C)CC2)ccc1Nc1ncc(Cl)c(Oc2cccc(NC(C)=O)c2)n1 | 2.91
COc1cc(N2CCN(C)CC2)ccc1Nc1ncc(Cl)c(Oc2ccccc2[N+](=O)[O-])n1 | 6.81
COc1cc(N2CCN(C)CC2)ccc1Nc1ncc(Cl)c(Oc2ccc(N=[N+]=[N-])cc2)n1 | 13.1
COc1cc(N2CCN(C)CC2)ccc1Nc1ncc(Cl)c(Oc2cccc(NC(=O)COCc3ccccc3)c2)n1 | 2.44
COc1cc(N2CCN(C)CC2)ccc1Nc1ncc(Cl)c(Oc2ccccc2NC(=O)COCc2ccccc2)n1 | 1.37
COc1cc(N2CCN(C)CC2)ccc1Nc1ncc(Cl)c(Oc2cccc(N=C=S)c2)n1 | 8.41
C=CC(=O)Nc1ccc(Oc2nc(Nc3ccc(N4CCN(C)CC4)cc3OC)ncc2Cl)cc1 | 6.39
COc1cc(N2CCN(C)CC2)ccc1Nc1ncc(Cl)c(Oc2ccc(N=C=S)cc2)n1 | 7.5
COc1cc(N2CCN(C)CC2)ccc1Nc1ncc(Cl)c(Oc2ccc(NC(=O)CCOCc3ccccc3)cc2)n1 | 1.43
COc1cc(N2CCN(C)CC2)ccc1Nc1ncc(Cl)c(Oc2cccc(NC(=O)CO)c2)n1 | 1.48
C=CC(=O)Nc1ccccc1Oc1nc(Nc2ccc(N3CCN(C)CC3)cc2OC)ncc1Cl | 2.92
COc1cc(N2CCN(C)CC2)ccc1Nc1ncc(Cl)c(Oc2cccc(NC(=O)/C=C/CN(C)C)c2)n1 | 7.02
COc1cc(N2CCN(C)CC2)ccc1Nc1ncc(Cl)c(Oc2ccccc2N)n1 | 6.73
COc1cc(N2CCN(C)CC2)ccc1Nc1ncc(Cl)c(Oc2cccc(NC(=O)CCOCc3ccccc3)c2)n1 | 2.47
COc1cc(N2CCN(C)CC2)ccc1Nc1ncc(Cl)c(Oc2ccc(NC(=O)CO)cc2)n1 | 6.68
COc1cc(N2CCN(C)CC2)ccc1Nc1ncc(Cl)c(Oc2ccc(NC(C)=O)cc2)n1 | 2.08

SMILES | IC50 [µM]
COc1cc(N2CCN(C)CC2)ccc1Nc1ncc(Cl)c(Oc2cccc(N=[N+]=[N-])c2)n1 | 3.87
COc1cc(N2CCN(C)CC2)ccc1Nc1ncc(Cl)c(Oc2ccc(NC(=O)/C=C/CN(C)C)cc2)n1 | 4.72
COc1cc(N2CCN(C)CC2)ccc1Nc1ncc(Cl)c(Oc2cccc([N+](=O)[O-])c2)n1 | 6.8
COc1cc(N2CCN(C)CC2)ccc1Nc1ncc(Cl)c(Oc2ccccc2N=[N+]=[N-])n1 | 1.45
COc1cc(N2CCN(C)CC2)ccc1Nc1ncc(Cl)c(Oc2ccccc2NC(=O)CO)n1 | 2.07
COc1cc(N2CCN(C)CC2)ccc1Nc1ncc(Cl)c(Oc2ccccc2NC(=O)/C=C/CN(C)C)n1 | 9.1
COc1cc(N2CCN(C)CC2)ccc1Nc1ncc(Cl)c(Oc2ccc([N+](=O)[O-])cc2)n1 | 3.48
C=CC(=O)Nc1cccc(Oc2nc(Nc3ccc(N4CCN(C)CC4)cc3OC)ncc2Cl)c1 | 9.69
COc1cc(N2CCN(C)CC2)ccc1Nc1ncc(Cl)c(Oc2ccccc2NC(=O)CCO)n1 | 2.12
COc1cc(N2CCN(C)CC2)ccc1Nc1ncc(Cl)c(Oc2ccccc2N=C=S)n1 | 5.56
COc1cc(N2CCN(C)CC2)ccc1Nc1ncc(Cl)c(Oc2ccc(NC(=O)COCc3ccccc3)cc2)n1 | 2.11
COc1cc(N2CCN(C)CC2)ccc1Nc1ncc(Cl)c(Oc2ccccc2NC(C)=O)n1 | 8.49
COc1cc(N2CCN(C)CC2)ccc1Nc1ncc(Cl)c(Oc2cccc(N)c2)n1 | 1.9
COc1cc(N2CCN(C)CC2)ccc1Nc1ncc(Cl)c(Oc2ccc(NC(=O)CCO)cc2)n1 | 3.25
COc1cc(N2CCN(C)CC2)ccc1Nc1ncc(Cl)c(Oc2ccccc2NC(=O)CCOCc2ccccc2)n1 | 3.12
COc1cc(N2CCN(C)CC2)ccc1Nc1ncc(Cl)c(Oc2cccc(NC(=O)CCO)c2)n1 | 2.07

assay: Inhibition of ABL T315I mutant in mouse BAF3 cells assessed as reduction in cell viability after 72 hrs by MTT assay

SMILES | IC50 [µM]
COc1cc(N2CCN(C)CC2)ccc1Nc1ncc(Cl)c(Oc2ccc(N)cc2)n1 | 5.47
COc1cc(N2CCN(C)CC2)ccc1Nc1ncc(Cl)c(Oc2cccc(NC(C)=O)c2)n1 | 5.56
COc1cc(N2CCN(C)CC2)ccc1Nc1ncc(Cl)c(Oc2ccccc2[N+](=O)[O-])n1 | 11.6
COc1cc(N2CCN(C)CC2)ccc1Nc1ncc(Cl)c(Oc2ccc(N=[N+]=[N-])cc2)n1 | 15.1
COc1cc(N2CCN(C)CC2)ccc1Nc1ncc(Cl)c(Oc2cccc(NC(=O)COCc3ccccc3)c2)n1 | 2.87
COc1cc(N2CCN(C)CC2)ccc1Nc1ncc(Cl)c(Oc2ccccc2NC(=O)COCc2ccccc2)n1 | 3.5
COc1cc(N2CCN(C)CC2)ccc1Nc1ncc(Cl)c(Oc2cccc(N=C=S)c2)n1 | 4.99
C=CC(=O)Nc1ccc(Oc2nc(Nc3ccc(N4CCN(C)CC4)cc3OC)ncc2Cl)cc1 | 7.7
COc1cc(N2CCN(C)CC2)ccc1Nc1ncc(Cl)c(Oc2ccc(N=C=S)cc2)n1 | 9.53
COc1cc(N2CCN(C)CC2)ccc1Nc1ncc(Cl)c(Oc2ccc(NC(=O)CCOCc3ccccc3)cc2)n1 | 1.5
COc1cc(N2CCN(C)CC2)ccc1Nc1ncc(Cl)c(Oc2cccc(NC(=O)CO)c2)n1 | 1.12
C=CC(=O)Nc1ccccc1Oc1nc(Nc2ccc(N3CCN(C)CC3)cc2OC)ncc1Cl | 2.37
COc1cc(N2CCN(C)CC2)ccc1Nc1ncc(Cl)c(Oc2cccc(NC(=O)/C=C/CN(C)C)c2)n1 | 6.02
COc1cc(N2CCN(C)CC2)ccc1Nc1ncc(Cl)c(Oc2ccccc2N)n1 | 5.74
COc1cc(N2CCN(C)CC2)ccc1Nc1ncc(Cl)c(Oc2cccc(NC(=O)CCOCc3ccccc3)c2)n1 | 2.49
COc1cc(N2CCN(C)CC2)ccc1Nc1ncc(Cl)c(Oc2ccc(NC(=O)CO)cc2)n1 | 2.74
COc1cc(N2CCN(C)CC2)ccc1Nc1ncc(Cl)c(Oc2ccc(NC(C)=O)cc2)n1 | 2.89

SMILES | IC50 [µM]
COc1cc(N2CCN(C)CC2)ccc1Nc1ncc(Cl)c(Oc2cccc(N=[N+]=[N-])c2)n1 | 4.67
COc1cc(N2CCN(C)CC2)ccc1Nc1ncc(Cl)c(Oc2ccc(NC(=O)/C=C/CN(C)C)cc2)n1 | 3.41
COc1cc(N2CCN(C)CC2)ccc1Nc1ncc(Cl)c(Oc2cccc([N+](=O)[O-])c2)n1 | 9.15
COc1cc(N2CCN(C)CC2)ccc1Nc1ncc(Cl)c(Oc2ccccc2N=[N+]=[N-])n1 | 1.33
COc1cc(N2CCN(C)CC2)ccc1Nc1ncc(Cl)c(Oc2ccccc2NC(=O)CO)n1 | 4.18
COc1cc(N2CCN(C)CC2)ccc1Nc1ncc(Cl)c(Oc2ccccc2NC(=O)/C=C/CN(C)C)n1 | 8.12
COc1cc(N2CCN(C)CC2)ccc1Nc1ncc(Cl)c(Oc2ccc([N+](=O)[O-])cc2)n1 | 6.89
C=CC(=O)Nc1cccc(Oc2nc(Nc3ccc(N4CCN(C)CC4)cc3OC)ncc2Cl)c1 | 16.3
COc1cc(N2CCN(C)CC2)ccc1Nc1ncc(Cl)c(Oc2ccccc2NC(=O)CCO)n1 | 3.86
COc1cc(N2CCN(C)CC2)ccc1Nc1ncc(Cl)c(Oc2ccccc2N=C=S)n1 | 8.99
COc1cc(N2CCN(C)CC2)ccc1Nc1ncc(Cl)c(Oc2ccc(NC(=O)COCc3ccccc3)cc2)n1 | 3.62
COc1cc(N2CCN(C)CC2)ccc1Nc1ncc(Cl)c(Oc2ccccc2NC(C)=O)n1 | 4.73
COc1cc(N2CCN(C)CC2)ccc1Nc1ncc(Cl)c(Oc2cccc(N)c2)n1 | 1.96
COc1cc(N2CCN(C)CC2)ccc1Nc1ncc(Cl)c(Oc2ccc(NC(=O)CCO)cc2)n1 | 3.35
COc1cc(N2CCN(C)CC2)ccc1Nc1ncc(Cl)c(Oc2ccccc2NC(=O)CCOCc2ccccc2)n1 | 3.06
COc1cc(N2CCN(C)CC2)ccc1Nc1ncc(Cl)c(Oc2cccc(NC(=O)CCO)c2)n1 | 1.39
